Test results reported in paper PMC12655252, “Synthesis of 1H-Pyrrolo[3,2-g]isoquinoline Derivatives as Ligands Targeting Haspin Kinase” (Molecules, 2025).

Columns and labels:
Type in all cases: biochemical
HsCDK9/CyclinT = biological target: T1, HsCDK9/CyclinT (Homo sapiens, UniProt P50750); assay: ADP-Glo in vitro kinase inhibition assay, CDK9/CyclinT; settings: 10 μM ATP, read-out: CDK9 % residual activity; for remaining activity at 1 µM: 1 μM compound; for remaining activity at 10 µM: 10 μM compound
T1 construct: made in house; host or cells: Sf9 insect cells (baculovirus)
T1 sequence (P50750 whole entry): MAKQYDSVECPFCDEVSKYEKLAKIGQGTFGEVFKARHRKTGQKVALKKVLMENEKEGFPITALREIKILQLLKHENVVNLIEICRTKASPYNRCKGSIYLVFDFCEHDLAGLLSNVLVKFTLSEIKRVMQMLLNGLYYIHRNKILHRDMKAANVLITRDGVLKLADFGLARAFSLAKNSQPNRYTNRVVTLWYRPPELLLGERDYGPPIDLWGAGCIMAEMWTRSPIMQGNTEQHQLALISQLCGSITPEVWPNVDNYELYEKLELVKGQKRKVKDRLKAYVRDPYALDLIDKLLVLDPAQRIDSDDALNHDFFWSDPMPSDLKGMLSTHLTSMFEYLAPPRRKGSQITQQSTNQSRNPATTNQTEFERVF
T1 sequence (O60563 whole entry partner): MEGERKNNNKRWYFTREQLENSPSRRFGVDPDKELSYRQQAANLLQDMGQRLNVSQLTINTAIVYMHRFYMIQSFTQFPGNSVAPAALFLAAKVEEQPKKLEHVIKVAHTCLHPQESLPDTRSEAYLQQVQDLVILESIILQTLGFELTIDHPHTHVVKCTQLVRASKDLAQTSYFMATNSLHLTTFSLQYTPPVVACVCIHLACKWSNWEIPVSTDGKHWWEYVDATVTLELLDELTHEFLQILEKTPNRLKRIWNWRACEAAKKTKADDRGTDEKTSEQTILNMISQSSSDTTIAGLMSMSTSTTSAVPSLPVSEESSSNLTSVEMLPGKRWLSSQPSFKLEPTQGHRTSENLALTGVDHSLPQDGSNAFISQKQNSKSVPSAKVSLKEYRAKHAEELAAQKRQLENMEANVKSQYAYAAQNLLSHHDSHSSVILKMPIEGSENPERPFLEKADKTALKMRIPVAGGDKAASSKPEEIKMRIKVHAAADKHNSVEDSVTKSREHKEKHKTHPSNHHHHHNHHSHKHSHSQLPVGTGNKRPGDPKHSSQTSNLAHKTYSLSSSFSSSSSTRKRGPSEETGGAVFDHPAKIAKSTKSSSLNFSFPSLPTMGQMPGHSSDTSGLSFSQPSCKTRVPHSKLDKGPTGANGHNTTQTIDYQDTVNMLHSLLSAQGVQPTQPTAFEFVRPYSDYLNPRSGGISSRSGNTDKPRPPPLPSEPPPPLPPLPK
Description: (§1) We previouly reported that substitution at the 3-position with halogen atoms or pyridinyl or formyl groups was compatible with high potency toward Haspin kinase. To check if the current structural changes were in line with potent Haspin inhibition and high selectivity, enabling consideration of these compounds as possible targeting ligands for the PROTAC approach, compounds 2, 3, 8–11, and 15–17 were evaluated toward a panel of eight protein kinases, including Haspin, as well as other kinases known to be frequently cross-inhibited (CLK1, DYRK1A, CDK9/Cyclin T, GSK-3β, CK1ε, CDK5/p25, and Pim1) (Table 1). The percentage of residual kinase activity was evaluated at 10 μM and 1 μM compound concentrations. […].
(§2) Kinase inhibition was tested in 384-well plates using the ADP-GloTM assay kit (Promega, Madison, WI, USA) according to the procedure recommended by the manufacturer. Reactions were set up in a final volume of 6 μL in an appropriate kinase buffer (10 mM MgCl2, 1 mM EGTA, 1 mM DTT, 25 mM Tris-HCl pH 7.5, 50 μg/mL heparin) with either protein or peptide as the substrate in the presence of 10 μM ATP. To stop the kinase reaction, 6 μL of ADP-GloTM Kinase Reagent was added after 30 min at 30 °C. Then, after 50 min of incubation at room temperature (RT), 12 μL of Kinase Detection Reagent was added. The transmitted signal was measured after 1 h at RT using the Envision (Perkin Elmer, Waltham, MA, USA) microplate luminometer and expressed in relative light units (RLU). In order to determine the half-maximal inhibitory concentration (IC50), all assays were performed in duplicate in the absence or presence of increasing doses of the tested compounds. GraphPad Prism10 software (GraphPad Software, San Diego, CA, USA) was used to fit dose–response curves and to determine the IC50 values. Kinase activities are given as percentages of maximal activity, i.e., measured in the absence of inhibitor. Peptide substrates were obtained from Proteogenix (Schiltigheim, France).
(§3) The following protein kinases were analyzed in this study: CDK5/p25 (human, vector pGEX-2T, expressed in bacteria; kindly provided by Dr. J. H. Wang) was assayed with 0.8 μg/μL of histone H1 as substrate; HsCDK9/CyclinT (NP_001252/KAI4065659, cloned in pTEFb vector, expressed by baculovirus in Sf9 insect cells) were assayed with 0.27 μg/μL of the following peptide: […], as substrate; HsCK1ε (NP_001885, cloned in pFAST-BAC vector, expressed in Sf9 insect cells) was assayed with 0.022 μg/μL of the following peptide: […]pAYSITA (“Sp” stands for phosphorylated serine) as CK1-specific substrate; HsGSK3β (AAH12760, cloned in pFAST-BAC, expressed by baculovirus in Sf9 insect cells) were assayed with 0.010 μg/μL of GS-1 peptide, a GSK-3-selective substrate ([…]pEDEEE); HsHaspin-kd (NP_114171, kinase domain, amino acids 470–798 cloned in pGEX-6P-3, expressed in bacteria) was assayed with 0.007 μg/μL of histone H3 (1–21) peptide ([…]) as substrate; Pim-1 (KAI4018123, expressed in bacteria) was assayed with 0.8 μg/μL of histone H1 as substrate; HsCLK1 (NP_004062, cloned in pFAST-BAC, expressed in Sf9 insect cells) was assayed with 0.027 μg/μL of the peptide: […]; RnDYRK1A-kd (Rattus norvegicus, amino acids 1–499, pGEX-2TK, expressed in bacteria, gift from Dr. W. Becker, Aachen, Germany) was tested in the presence of 0.033 μg/μL of the peptide: […].

HsGSK3β = biological target: T2, HsGSK3β (Homo sapiens, UniProt P49841); assay: ADP-Glo in vitro kinase inhibition assay, GSK3β; settings: 10 μM ATP, read-out: GSK3 % residual activity; for remaining activity at 1 µM: 1 μM compound; for remaining activity at 10 µM: 10 μM compound
T2 construct: made in house; host or cells: Sf9 insect cells (baculovirus)
T2 sequence (P49841 whole entry): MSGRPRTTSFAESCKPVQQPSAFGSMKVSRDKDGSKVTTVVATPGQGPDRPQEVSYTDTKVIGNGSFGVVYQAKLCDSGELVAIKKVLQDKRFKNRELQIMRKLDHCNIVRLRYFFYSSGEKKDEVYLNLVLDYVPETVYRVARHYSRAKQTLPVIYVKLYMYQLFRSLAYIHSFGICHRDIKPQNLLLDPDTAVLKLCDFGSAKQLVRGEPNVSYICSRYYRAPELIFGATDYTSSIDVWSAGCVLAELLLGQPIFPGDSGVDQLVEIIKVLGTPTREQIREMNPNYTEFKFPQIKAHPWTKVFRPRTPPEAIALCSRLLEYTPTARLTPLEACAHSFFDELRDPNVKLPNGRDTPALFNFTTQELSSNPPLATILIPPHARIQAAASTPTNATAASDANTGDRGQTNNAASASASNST
Description: as §1, §2, §3

RnDYRK1A-kd = biological target: T3, RnDYRK1A-kd (Rattus norvegicus, UniProt Q63470); assay: ADP-Glo in vitro kinase inhibition assay, DYRK1A; settings: 10 μM ATP; for remaining activity at 1 µM: 1 μM compound; for remaining activity at 1 µM / remaining activity at 10 µM: read-out: DYRK1A % residual activity; for remaining activity at 10 µM: 10 μM compound
T3 construct: Rattus norvegicus, amino acids 1–499, pGEX-2TK; made in house; host or cells: bacteria
Description: as §1, §2, §3

HsCLK1 = biological target: T4, HsCLK1 (Homo sapiens, UniProt P49759); assay: ADP-Glo in vitro kinase inhibition assay, CLK1; settings: 10 μM ATP; for remaining activity at 1 µM: 1 μM compound; for remaining activity at 1 µM / remaining activity at 10 µM: read-out: CLK1 % residual activity; for remaining activity at 10 µM: 10 μM compound
T4 construct: made in house; host or cells: Sf9 insect cells
T4 sequence (P49759 whole entry): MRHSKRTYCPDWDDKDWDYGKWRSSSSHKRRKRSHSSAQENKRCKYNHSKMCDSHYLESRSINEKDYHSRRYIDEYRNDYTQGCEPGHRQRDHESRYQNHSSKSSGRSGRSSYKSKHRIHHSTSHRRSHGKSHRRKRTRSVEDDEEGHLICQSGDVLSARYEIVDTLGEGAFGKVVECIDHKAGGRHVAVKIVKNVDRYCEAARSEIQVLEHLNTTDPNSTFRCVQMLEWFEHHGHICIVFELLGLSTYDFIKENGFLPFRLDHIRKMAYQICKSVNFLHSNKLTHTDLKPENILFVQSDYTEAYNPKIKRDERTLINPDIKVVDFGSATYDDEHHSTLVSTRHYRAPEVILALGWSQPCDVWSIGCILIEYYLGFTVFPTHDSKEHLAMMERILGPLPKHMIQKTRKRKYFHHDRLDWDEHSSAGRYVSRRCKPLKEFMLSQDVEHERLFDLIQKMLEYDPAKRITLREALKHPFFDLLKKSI
Description: as §1, §2, §3

Pim-1 = biological target: T5, Pim-1 (Homo sapiens, UniProt P11309); assay: ADP-Glo in vitro kinase inhibition assay, Pim-1; settings: 10 μM ATP; for remaining activity at 1 µM: 1 μM compound; for remaining activity at 1 µM / remaining activity at 10 µM: read-out: PIM1 % residual activity; for IC50: read-out: PIM1 IC50; for remaining activity at 10 µM: 10 μM compound
T5 construct: made in house; host or cells: bacteria
T5 sequence (P11309 whole entry): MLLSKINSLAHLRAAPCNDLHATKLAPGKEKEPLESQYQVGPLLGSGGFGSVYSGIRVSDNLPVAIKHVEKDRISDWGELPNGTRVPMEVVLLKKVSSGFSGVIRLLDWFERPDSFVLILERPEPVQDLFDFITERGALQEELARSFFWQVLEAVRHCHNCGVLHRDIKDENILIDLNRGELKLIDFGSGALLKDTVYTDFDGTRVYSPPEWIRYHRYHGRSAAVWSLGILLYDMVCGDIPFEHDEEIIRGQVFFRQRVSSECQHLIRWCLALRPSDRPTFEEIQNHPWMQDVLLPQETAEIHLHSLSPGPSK
Description: as §1, §2, §3

HsHaspin-kd = biological target: T6, HsHaspin-kd (Homo sapiens, UniProt Q8TF76); assay: ADP-Glo in vitro kinase inhibition assay, Haspin; settings: for remaining activity at 1 µM: 1 μM compound; for remaining activity at 1 µM / IC50 / remaining activity at 10 µM: 10 μM ATP, duplicate; for remaining activity at 1 µM / remaining activity at 10 µM: read-out: Haspin % residual activity; for remaining activity at 10 µM: 10 μM compound; for SI: selectivity index = IC50 second most inhibited kinase/IC50 Haspin: second most inhibited kinase named in parentheses below the value (PIM1 or CLK1)
T6 construct: kinase domain, amino acids 470–798 cloned in pGEX-6P-3; made in house; host or cells: bacteria
T6 sequence (Q8TF76 470-798): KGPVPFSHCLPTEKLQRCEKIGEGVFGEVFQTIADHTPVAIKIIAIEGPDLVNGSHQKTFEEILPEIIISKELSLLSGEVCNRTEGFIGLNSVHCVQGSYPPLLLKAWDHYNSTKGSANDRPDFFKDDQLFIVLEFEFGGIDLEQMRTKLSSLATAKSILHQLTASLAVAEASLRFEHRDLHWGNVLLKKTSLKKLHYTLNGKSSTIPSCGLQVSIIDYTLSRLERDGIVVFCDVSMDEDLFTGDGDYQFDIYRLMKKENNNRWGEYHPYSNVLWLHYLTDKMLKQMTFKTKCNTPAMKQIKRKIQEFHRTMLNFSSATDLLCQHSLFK
Description: as §1, §2, §3

In the case of `Nc1ccc(-c2c[nH]c3cc4cnccc4cc23)cn1` [Compound 3, 5-(1H-Pyrrolo[3,2-g]isoquinolin-3-yl)pyridin-2-amine], the remaining activity at 1 µM (HsCDK9/CyclinT) is reported as 83%, the remaining activity at 10 µM (HsCDK9/CyclinT) is reported as 44% and the remaining activity at 1 µM (HsGSK3β) is reported as 80%. For the same compound, the remaining activity at 10 µM (HsGSK3β) was 58%, the remaining activity at 1 µM (RnDYRK1A-kd) was 15% and the IC50 (RnDYRK1A-kd) was 212 nM. For the same compound, the remaining activity at 10 µM (RnDYRK1A-kd) was 0%, the remaining activity at 1 µM (HsCLK1) was 59% and the remaining activity at 10 µM (HsCLK1) was 18%. It also gave a remaining activity at 1 µM (Pim-1) of 17%, an IC50 (Pim-1) of 93.7 nM and a remaining activity at 10 µM (Pim-1) of 7%. The remaining activity at 1 µM (HsHaspin-kd) was 7%, the IC50 (HsHaspin-kd) was 10.6 nM and the remaining activity at 10 µM (HsHaspin-kd) was 1%. For the same compound, the “SI: selectivity index = IC50 second most inhibited kinase/IC50 Haspin” value (HsHaspin-kd) was 8.8.
For `COC(=O)/C=C/c1c[nH]c2cc3cnccc3cc12` [Compound 8, Methyl (E)-3-(1H-Pyrrolo[3,2-g]isoquinolin-3-yl)prop-2-enoate], the remaining activity at 1 µM (HsCDK9/CyclinT) was 79%, the remaining activity at 10 µM (HsCDK9/CyclinT) was 51% and the remaining activity at 1 µM (HsGSK3β) was 78%. For the same compound, the remaining activity at 10 µM (HsGSK3β) was 71%, the remaining activity at 1 µM (RnDYRK1A-kd) was 43% and the IC50 (RnDYRK1A-kd) was 1130 nM. The remaining activity at 10 µM (RnDYRK1A-kd) was 16%, the remaining activity at 1 µM (HsCLK1) was 55% and the remaining activity at 10 µM (HsCLK1) was 22%. It also gave a remaining activity at 1 µM (Pim-1) of 26%, an IC50 (Pim-1) of 404 nM and a remaining activity at 10 µM (Pim-1) of 8%. For the same compound, the remaining activity at 1 µM (HsHaspin-kd) was 11%, the IC50 (HsHaspin-kd) was 15.5 nM and the remaining activity at 10 µM (HsHaspin-kd) was 6%. For the same compound, the “SI: selectivity index = IC50 second most inhibited kinase/IC50 Haspin” value (HsHaspin-kd) was 26.1.
For `c1cc2cc3c(-c4cc[nH]n4)c[nH]c3cc2cn1` [Compound 15, 3-(1H-Pyrazol-3-yl)-1H-pyrrolo[3,2-g]isoquinoline], the remaining activity at 1 µM (HsGSK3β) was 100%, the remaining activity at 10 µM (HsGSK3β) was 86% and the remaining activity at 1 µM (RnDYRK1A-kd) was 39%. For the same compound, the IC50 (RnDYRK1A-kd) was 324 nM, the remaining activity at 10 µM (RnDYRK1A-kd) was 1% and the remaining activity at 1 µM (HsCLK1) was 32%. It also gave an IC50 (HsCLK1) of 503 nM, a remaining activity at 10 µM (HsCLK1) of 4% and a remaining activity at 1 µM (Pim-1) of 44%. It also gave an IC50 (Pim-1) of 222 nM, a remaining activity at 10 µM (Pim-1) of 0% and a remaining activity at 1 µM (HsHaspin-kd) of 0%. For the same compound, the IC50 (HsHaspin-kd) was 30.6 nM, the remaining activity at 10 µM (HsHaspin-kd) was 0% and the “SI: selectivity index = IC50 second most inhibited kinase/IC50 Haspin” value (HsHaspin-kd) was greater than 7.
Work on `c1cc2cc3c(-c4cn[nH]c4)c[nH]c3cc2cn1` [Compound 16, 3-(1H-Pyrazol-4-yl)-1H-pyrrolo[3,2-g]isoquinoline] yielded a remaining activity at 1 µM (HsGSK3β) of 94%, a remaining activity at 10 µM (HsGSK3β) of 17% and a remaining activity at 1 µM (RnDYRK1A-kd) of 11%. The IC50 (RnDYRK1A-kd) was 163 nM, the remaining activity at 10 µM (RnDYRK1A-kd) was 0% and the remaining activity at 1 µM (HsCLK1) was 4%. The IC50 (HsCLK1) was 102 nM, the remaining activity at 10 µM (HsCLK1) was 0% and the remaining activity at 1 µM (Pim-1) was 20%. It also gave a remaining activity at 10 µM (Pim-1) of 0%, a remaining activity at 1 µM (HsHaspin-kd) of 0% and an IC50 (HsHaspin-kd) of 12.4 nM. The remaining activity at 10 µM (HsHaspin-kd) was 0% and the “SI: selectivity index = IC50 second most inhibited kinase/IC50 Haspin” value (HsHaspin-kd) was 8.2.
For `c1c[nH]c(-c2c[nH]c3cc4cnccc4cc23)c1` [Compound 17, 3-(1H-Pyrrol-2-yl)-1H-pyrrolo[3,2-g]isoquinoline], the remaining activity at 1 µM (HsCDK9/CyclinT) was 76%, the remaining activity at 10 µM (HsCDK9/CyclinT) was 39% and the remaining activity at 1 µM (HsGSK3β) was 71%. It also gave a remaining activity at 10 µM (HsGSK3β) of 65%, a remaining activity at 1 µM (RnDYRK1A-kd) of 69% and a remaining activity at 10 µM (RnDYRK1A-kd) of 19%. It also gave a remaining activity at 1 µM (HsCLK1) of 47%, a remaining activity at 10 µM (HsCLK1) of 36% and a remaining activity at 1 µM (Pim-1) of 91%. It also gave a remaining activity at 10 µM (Pim-1) of 33%, a remaining activity at 1 µM (HsHaspin-kd) of 6% and an IC50 (HsHaspin-kd) of 81.3 nM. It also gave a remaining activity at 10 µM (HsHaspin-kd) of 0%.
